# From patent publication US12275731B2, “Azaindole inhibitors of wild-type and mutant forms of LRRK2” (DANA-FARBER CANCER INSTITUTE, INC., priority 2018, dated 2025)
# pIC50: −log10 of the molar value. Where two headings read alike, the source gives them in different places.
# Columns and labels:
# LRRK2 WT enzyme = target: T1, LRRK2 WT enzyme (Homo sapiens, UniProt Q5S007); assay: LRRK2 wild type kinase inhibition assay (ADP-Glo); type: biochemical; settings: for IC50: Table 1, read-out: IC50 (nM) LRRK2 wt; for pIC50: Table 2, class symbols, read-out: Enzyme activity against LRRK2 WT (IC50)
# T1 construct: purchased Thermo Fisher Scientific PR8604B
# T1 sequence (Q5S007 970-2527 limits assumed): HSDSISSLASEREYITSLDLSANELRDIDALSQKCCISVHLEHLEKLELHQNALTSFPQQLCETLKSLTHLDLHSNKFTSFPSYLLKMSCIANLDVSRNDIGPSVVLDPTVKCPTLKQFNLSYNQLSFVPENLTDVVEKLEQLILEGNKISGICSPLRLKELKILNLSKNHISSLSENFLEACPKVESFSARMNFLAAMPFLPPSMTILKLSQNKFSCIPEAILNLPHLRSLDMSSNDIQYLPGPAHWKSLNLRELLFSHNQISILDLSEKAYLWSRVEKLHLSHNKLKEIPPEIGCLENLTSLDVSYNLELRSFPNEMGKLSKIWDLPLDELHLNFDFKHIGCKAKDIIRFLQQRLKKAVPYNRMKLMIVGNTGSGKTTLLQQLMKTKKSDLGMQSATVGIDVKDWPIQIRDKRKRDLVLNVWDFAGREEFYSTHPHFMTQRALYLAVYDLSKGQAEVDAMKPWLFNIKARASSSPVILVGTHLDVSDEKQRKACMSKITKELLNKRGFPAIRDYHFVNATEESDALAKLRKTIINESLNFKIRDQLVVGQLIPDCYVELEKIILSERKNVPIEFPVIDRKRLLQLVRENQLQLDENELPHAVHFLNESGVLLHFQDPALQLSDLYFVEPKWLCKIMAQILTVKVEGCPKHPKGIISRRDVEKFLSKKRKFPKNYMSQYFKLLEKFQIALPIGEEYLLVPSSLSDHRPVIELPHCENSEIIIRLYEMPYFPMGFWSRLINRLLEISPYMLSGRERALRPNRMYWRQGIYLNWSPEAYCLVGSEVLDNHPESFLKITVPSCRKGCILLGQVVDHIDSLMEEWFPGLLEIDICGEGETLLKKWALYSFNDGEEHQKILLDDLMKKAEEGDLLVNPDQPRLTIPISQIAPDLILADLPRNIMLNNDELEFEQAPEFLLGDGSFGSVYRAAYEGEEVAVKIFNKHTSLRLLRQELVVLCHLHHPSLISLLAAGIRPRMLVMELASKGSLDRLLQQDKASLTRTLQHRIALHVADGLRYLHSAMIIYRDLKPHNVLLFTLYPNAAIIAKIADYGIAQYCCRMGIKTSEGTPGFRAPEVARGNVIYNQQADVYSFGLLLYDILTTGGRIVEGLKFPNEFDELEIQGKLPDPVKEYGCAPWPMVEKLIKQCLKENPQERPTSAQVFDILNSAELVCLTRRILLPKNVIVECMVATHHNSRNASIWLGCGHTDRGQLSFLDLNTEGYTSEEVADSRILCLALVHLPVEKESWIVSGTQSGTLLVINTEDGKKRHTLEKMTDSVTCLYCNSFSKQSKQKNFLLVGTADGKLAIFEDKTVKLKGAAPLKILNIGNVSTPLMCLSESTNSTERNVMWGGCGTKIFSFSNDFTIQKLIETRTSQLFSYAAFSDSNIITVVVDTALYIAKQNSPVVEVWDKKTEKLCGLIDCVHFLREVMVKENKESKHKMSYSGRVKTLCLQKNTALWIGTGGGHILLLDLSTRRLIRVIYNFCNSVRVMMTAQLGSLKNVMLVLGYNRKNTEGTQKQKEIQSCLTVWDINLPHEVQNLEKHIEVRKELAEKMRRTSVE
# Procedure: (§1) IC50 experiments were performed for inventive compounds. An exemplary kit to perform this assay includes the Adapta™ Screening Protocol and Assay Conditions by Invitrogen™ (Fisher Scientific™, Catalog No. PV5099).
# (§2) All LRRK2 kinase inhibition assays were conducted by using Promega ADP-Glo™ Kinase assay systems (Catalog number; V4475). Inhibitors were tested with 12 concentrations over a 5-fold serial dilution series (50 μM, 10 μM, 2 μM, 400 nM, 80 nM, 16 nM, 3.2 nM, […]) and PF06447475 as positive control. For the LRRK2 wild type (WT) enzyme assay, each inhibitor was mixed with 0.2 μg/μL of substrate (LRRKtide, SignalChem, Richmond, BC, Canada), […] (Invitrogen™, Carlsbad, CA), 24 ng of LRRK2 WT enzyme (Thermo Fisher Scientific, PR8604B) in 384-well plate. For LRRK G2019S, each compound was mixed with 0.2 μg/μL of substrate, […], 16 ng of LRRK2 G2019S enzyme (SignalChem, L10-12GG). All samples were diluted with kinase reaction buffer (40 mmol/L TrisHCl, 10 mmol/L MgCl2, and 0.1 μg/μL BSA (bovine serum albumin)). After 2 hours at 25° C., ADP-Glo™ (Promega, Madison, WI) reagent was added and the samples were incubated at rt for 40 min. Finally, Kinase Detection Reagent was added and the resulting mixtures were allowed to react at rt for 10 min. Luminescence signals were detected using Synergy™ Neo2 microplate reader (Bio-Tek). Compound inhibition curve was fitted using Graphpad Prism 8.0 software.
# LRRK2(G2019S) = LRRK2(G2019S) (Homo sapiens, UniProt Q5S007, G2019S); assay: LRRK2 G2019S kinase inhibition assay (ADP-Glo); type: biochemical; design: purchased SignalChem L10-12GG; settings: for IC50: Table 1, read-out: IC50 (nM) LRRK2 G2019S; for pIC50: Table 2, class symbols, read-out: Enzyme activity against LRRK2 G2019S (IC50)
# Sequence of LRRK2(G2019S) (Q5S007 970-2527 G2019S limits assumed): as the sequence (Q5S007 970-2527 limits assumed) above, with G1050S counted along it
# Procedure: as §1, §2
SMILES,IC50 (LRRK2 WT enzyme),IC50 (LRRK2(G2019S)),pIC50 (LRRK2 WT enzyme),pIC50 (LRRK2(G2019S))
"CNc1c(-c2ccn(C)n2)cnc2[nH]cc(Cl)c12 [Compound 11, 3-chloro-N-methyl-5-(1-methyl-1H-pyrazol-3-yl)-1H-pyrrolo[2,3-b]pyridin-4-amine]",8.4 nM,30.9 nM,–,–
"CCc1cc(-c2cnc3[nH]cc(Cl)c3c2NC(C)C)nn1C [Compound 10, 3-chloro-5-(5-ethyl-1-methyl-1H-pyrazol-3-yl)-N-isopropyl-1H-pyrrolo[2,3-b]pyridin-4-amine]",259 nM,523 nM,–,–
"CNc1c(-c2ccc(C(=O)N3CCOCC3)cc2)cnc2[nH]cc(Cl)c12 [Compound 90, (4-(3-chloro-4-(methylamino)-1H-pyrrolo[2,3-b]pyridin-5-yl)phenyl)(morpholino)methanone]",–,–,> 8.00,> 8.00
"CNc1c(C(F)(F)F)cnc2[nH]cc(-c3cnn(C(C)(C)C#N)c3)c12 [Compound 7, 2-methyl-2-(4-(4-(methylamino)-5-(trifluoromethyl)-1H-pyrrolo[2,3-b]pyridin-3-yl)-1H-pyrazol-1-yl)propanenitrile]",38 nM,26 nM,–,–
"O=C(c1ccc(-c2cnc3[nH]cc(Cl)c3c2NC2CC2)cc1)N1CCOCC1 [Compound 93, (4-(3-chloro-4-(cyclopropylamino)-1H-pyrrolo[2,3-b]pyridin-5-yl)phenyl)(morpholino)methanone]",–,–,7.00 to 8.00,7.00 to 8.00
"CC(C)Nc1c(-c2ccc(C(=O)N3CCOCC3)cc2)cnc2[nH]ccc12 [Compound 48, (4-(4-(isopropylamino)-1H-pyrrolo[2,3-b]pyridin-5-yl)phenyl)(morpholino)methanone]",–,–,7.00 to 8.00,7.00 to 8.00
"CNc1c(-c2c3cc(OC)ccc3nn2C)cnc2[nH]cc(Cl)c12 [Compound 16, 3-chloro-5-(5-methoxy-2-methyl-2H-indazol-3-yl)-N-methyl-1H-pyrrolo[2,3-b]pyridin-4-amine]",6230 nM,> 10000 nM,–,–
"CNc1c(-c2cnn(C(C)(C)C#N)c2)cnc2[nH]cc(Cl)c12 [Compound 4, 2-(4-(3-chloro-4-(methylamino)-1H-pyrrolo[2,3-b]pyridin-5-yl)-1H-pyrazol-1-yl)-2-methylpropanenitrile]",15 nM,14 nM,–,–
"CNc1c(-c2nn(C)c3ccc(OC)cc23)cnc2[nH]cc(Cl)c12 [Compound 15, 3-(3-chloro-4-(methylamino)-1H-pyrrolo[2,3-b]pyridin-5-yl)-5-methoxy-1-methyl-1H-indazole]",140 nM,397 nM,–,–
"CNc1c(-c2nn(C)c3ccc(C#N)cc23)cnc2[nH]cc(Cl)c12 [Compound 14, 3-(3-chloro-4-(methylamino)-1H-pyrrolo[2,3-b]pyridin-5-yl)-1-methyl-1H-indazole-5-carbonitrile]",95.2 nM,305 nM,–,–
"CNc1c(-c2cn(C3CCOCC3)nc2C2CC2)cnc2[nH]cc(Cl)c12 [Compound 13, 3-chloro-5-(3-cyclopropyl-1-(tetrahydro-2H-pyran-4-yl)-1H-pyrazol-4-yl)-N-methyl-1H-pyrrolo[2,3-b]pyridin-4-amine]",3600 nM,> 10000 nM,–,–
"CCNc1c(-c2ccc(C(=O)N3CCC(N4CCOCC4)CC3)cc2)cnc2[nH]cc(Cl)c12 [Compound 97, (4-(3-chloro-4-(ethylamino)-1H-pyrrolo[2,3-b]pyridin-5-yl)phenyl)(4-morpholinopiperidin-1-yl)methanone]",–,–,> 8.00,7.00 to 8.00
"CCc1cc(-c2cnc3[nH]cc(Cl)c3c2NC)nn1C [Compound 9, 3-chloro-5-(5-ethyl-1-methyl-1H-pyrazol-3-yl)-N-methyl-1H-pyrrolo[2,3-b]pyridin-4-amine]",36.6 nM,83.1 nM,–,–
"CCNc1c(-c2ccc(C(=O)N3CCOCC3)cc2)cnc2[nH]cc(Cl)c12 [Compound 91, (4-(3-chloro-4-(ethylamino)-1H-pyrrolo[2,3-b]pyridin-5-yl)phenyl)(morpholino)methanone]",–,–,7.00 to 8.00,7.00 to 8.00
"CC(C)Nc1c(-c2ccn(C)n2)cnc2[nH]cc(Cl)c12 [Compound 12, 3-chloro-N-isopropyl-5-(1-methyl-1H-pyrazol-3-yl)-1H-pyrrolo[2,3-b]pyridin-4-amine]",136 nM,514 nM,–,–

# Next, values leading:
IC50 (LRRK2 WT enzyme),IC50 (LRRK2(G2019S)),pIC50 (LRRK2 WT enzyme),pIC50 (LRRK2(G2019S)),SMILES
891 nM,825 nM,–,–,"CNc1c(-c2cnn(C3CCN(C)CC3)c2)cnc2[nH]ccc12 [Compound 2, N-methyl-5-(1-(1-methylpiperidin-4-yl)-1H-pyrazol-4-yl)-1H-pyrrolo[2,3-b]pyridin-4-amine]"
–,–,7.00 to 8.00,< 7.00,"O=C(c1ccc(-c2cnc3[nH]cc(Cl)c3c2NC2CC2)cc1)N1CCC(N2CCOCC2)CC1 [Compound 99, (4-(3-chloro-4-(cyclopropylamino)-1H-pyrrolo[2,3-b]pyridin-5-yl)phenyl)(4-morpholinopiperidin-1-yl)methanone]"
–,–,7.00 to 8.00,7.00 to 8.00,"CC(C)Nc1c(-c2ccc(C(=O)N3CCC(N4CCOCC4)CC3)cc2)cnc2[nH]ccc12 [Compound 54, (4-(4-(isopropylamino)-1H-pyrrolo[2,3-b]pyridin-5-yl)phenyl)(4-morpholinopiperidin-1-yl)methanone]"
–,–,7.00 to 8.00,7.00 to 8.00,"F[C@H]1CN(C2COC2)CC[C@@H]1n1cc(-c2cnc3[nH]ccc3c2NC2CCCC2)cn1 [Compound 31, N-cyclopentyl-5-(1-((3S,4S)-3-fluoro-1-(oxetan-3-yl)piperidin-4-yl)-1H-pyrazol-4-yl)-1H-pyrrolo[2,3-b]pyridin-4-amine]"
103 nM,61 nM,–,–,"CNc1c(C(F)(F)F)cnc2[nH]cc(-c3cnn(C4CCN(C)CC4)c3)c12 [Compound 8, N-methyl-3-(1-(1-methylpiperidin-4-yl)-1H-pyrazol-4-yl)-5-(trifluoromethyl)-1H-pyrrolo[2,3-b]pyridin-4-amine]"
–,–,7.00 to 8.00,7.00 to 8.00,"CCNc1c(-c2cnn([C@H]3CCN(C(C)=O)C[C@@H]3F)c2)cnc2[nH]cc(Cl)c12 [Compound 78, 1-((3S,4S)-4-(4-(3-chloro-4-(ethylamino)-1H-pyrrolo[2,3-b]pyridin-5-yl)-1H-pyrazol-1-yl)-3-fluoropiperidin-1-yl)ethan-1-one]"
264 nM,164 nM,–,–,"CNc1c(-c2cnn(C3CCOCC3)c2)cnc2[nH]ccc12 [Compound 3, N-methyl-5-(1-(tetrahydro-2H-pyran-4-yl)-1H-pyrazol-4-yl)-1H-pyrrolo[2,3-b]pyridin-4-amine]"
–,–,7.00 to 8.00,7.00 to 8.00,"CNc1c(-c2cnn([C@H]3CCN(C4COC4)C[C@@H]3F)c2)cnc2[nH]cc(Cl)c12 [Compound 70, 3-chloro-5-(1-((3S,4S)-3-fluoro-1-(oxetan-3-yl)piperidin-4-yl)-1H-pyrazol-4-yl)-N-methyl-1H-pyrrolo[2,3-b]pyridin-4-amine]"
–,–,7.00 to 8.00,< 7.00,"COCCNc1c(-c2cnn([C@H]3CCN(C(C)=O)C[C@@H]3F)c2)cnc2[nH]cc(Cl)c12 [Compound 81, 1-((3S,4S)-4-(4-(3-chloro-4-((2-methoxyethyl)amino)-1H-pyrrolo[2,3-b]pyridin-5-yl)-1H-pyrazol-1-yl)-3-fluoropiperidin-1-yl)ethan-1-one]"
22 nM,20 nM,–,–,"CNc1c(-c2cnn(C3CCN(C)CC3)c2)cnc2[nH]cc(Cl)c12 [Compound 5, 3-chloro-N-methyl-5-(1-(1-methylpiperidin-4-yl)-1H-pyrazol-4-yl)-1H-pyrrolo[2,3-b]pyridin-4-amine]"
–,–,7.00 to 8.00,7.00 to 8.00,"CC(=O)N1CC[C@H](n2cc(-c3cnc4[nH]ccc4c3NC3CCCC3)cn2)[C@@H](F)C1 [Compound 38, 1-((3S,4S)-4-(4-(4-(cyclopentylamino)-1H-pyrrolo[2,3-b]pyridin-5-yl)-1H-pyrazol-1-yl)-3-fluoropiperidin-1-yl)ethan-1-one]"
10 nM,15 nM,–,–,"CNc1c(-c2cnn(C3CCOCC3)c2)cnc2[nH]cc(Cl)c12 [Compound 6, 3-chloro-N-methyl-5-(1-(tetrahydro-2H-pyran-4-yl)-1H-pyrazol-4-yl)-1H-pyrrolo[2,3-b]pyridin-4-amine]"
544 nM,326 nM,–,–,"CNc1c(-c2cnn(C(C)(C)C#N)c2)cnc2[nH]ccc12 [Compound 1, 2-methyl-2-(4-(4-(methylamino)-1H-pyrrolo[2,3-b]pyridin-5-yl)-1H-pyrazol-1-yl)propanenitrile]"
